{"source": "paper PMC8333425", "about": "“Discovery of a dual Ras and ARF6 inhibitor from a GPCR endocytosis screen” (Nature Communications, 2021)", "key": {"[1]": {"tested_on": "ERK1/2 activation by AT1R", "test": "Western blot of AT1R-mediated ERK1/2 activation in β-arrestin1/2 KO cells", "format": "cell-based, human", "settings": "for ERK1/2 activation by AT1R in β-arrestin1/2 KO cells: 50 μM", "method": "(§1) HEK293SL cells (10^5 cells per well) were seeded in a poly-L-lysine-coated six-well plate and transiently transfected with 3 μg Flag-AT1R, HA-B2R or HA-β2AR and/or 500 ng Flag-MEK1-WT, Flag-MEK1-DD, Flag-BRAF-WT, Flag-BRAF-V600E, Flag-K-Ras-WT, Flag-K-Ras-G12V, HA-ARF6-WT, or HA-ARF6-T27N. Gαq/11 KO and βarr1/2 KO cells were seeded onto 100 mm dishes at a density of 10^6 cells per dish. Next day, cells were transfected with 3 μg AT1R alone or along with 500 ng of β-arrestin2 using PEI. After 18 h of transfection, cells were detached and re-seeded onto poly-L-lysine coated 12-well plates (~1.5–2 × 10^5cells/well) for subsequent experiments. Forty-eight hours post transfection, in a 37 °C water bath, cells were serum-starved for 30 min, pretreated with DMSO (0.1%) or compound 21/Rasarfin (50 µM or at indicated concentrations) for 30 min, then stimulated or not with the indicated ligand [AngII (1 µM), BK (1 µM), Iso (10 µM) or EGF (100 ng/ml)] at indicated times. Cells were put on ice, washed with PBS and solubilized in 2x laemmli buffer (250 mM Tris–HCl pH 6.8, 2% SDS (w/v), 10% glycerol (v/v), 0.01% bromophenol blue (w/v) and 5% β-mercaptoethanol (v/v)) by heating at 65 °C for 15 min. Lysates were resolved on 10 or 14% SDS-PAGE, transferred to nitrocellulose membranes and immunoblotted for p-ERK1/2, ERK1/2, p-Akt, Akt, HA, Myc, β-actin or FLAG. ImageLab 5.2 software was used to quantify the digital blots as fold of the phosphorylated protein over total protein, which were then normalized as indicated in the figure legends. Uncropped immunoblots are provided in the Source Data file."}, "BRAF": {"tested_on": "BRAF", "test": "Western blot of ERK1/2 phosphorylation induced by BRAF (BRAF-WT / BRAF-V600E)", "format": "cell-based, human", "method": "as §1"}, "Ras": {"tested_on": "Ras", "test": "GST-Raf1-RBD pull-down of EGFR-mediated Ras activation", "format": "cell-based, human", "settings": "for Ras-GTP over total Ras, GST-Raf1-RBD pull-down, EGFR: Comp 21 50 μM, individual experiments", "excerpt": "Since 21 inhibited both ERK1/2 and Akt activation by GPCRs and EGFR, we looked at a common target involved in both pathways. The small G protein Ras is an upstream regulator of both Ras-RAF-MEK-ERK and PI3K/Akt signaling pathways[35],[36]. Therefore, we explored 21’s ability to inhibit Ras activity using GST-Raf1-Ras-binding domain (RBD) in a pull-down assay. A reduction of 60% in GTP-bound Ras was noticed in pulled-down from cells treated with 21 and stimulated with either AT1R or EGFR, as compared to vehicle-treated cells (Fig. 4a, b). Complementary to this in vitro assay, we generated a Ras BRET assay, using the Raf-Ras binding domain tagged with RlucII (Raf1-RBD-RlucII) and the rGFP at the PM (rGFP-CAAX) (Supplementary Fig. 3c), to assess 21’s effects on Ras activation kinetics. […] Overexpression of either the active form of Ras (G12V) or SOS1 anchored at the PM (SOS-CAAX) produced a robust basal BRET signal that was no longer modulated by receptor activation (Supplementary Fig. 3d). […] 21’s potency to inhibit ARF6 and Ras is also consistent with its relative efficacy for inhibiting AT1R internalization and MAPK, respectively, when used at 50 μM (e.g., around 7 and 70 times the respective IC50s) (Figs. 2e and 3a). We also assessed if 21 was acting as a pan small G protein inhibitor by testing its effect on Rho and Rac/Cdc42. […] To assess Rac/Cdc42 activity, we generated a Rac/Cdc42 BRET sensor that consisted of the PAK-CRIB domain fused to RlucII (PAK-CRIB-RlucII) and the rGFP-CAAX (Supplementary Fig. 3e). PAK-CRIB, which binds to active Rac/Cdc42, was recruited to the PM upon AngII stimulation of cells and generated a robust BRET signal, which was blocked by the overexpression of the DN Rac1-T17N. Overexpression of the constitutively active Rac1-Q61L increased the basal BRET, which was no longer modulated by AT1R stimulation (Supplementary Fig. 3f).\nActivation of ARF1, ARF6, Ras, and Rho were assessed by using GST pull-down assays. […] ImageLab 5.2 software was used to quantify the digital blots as fold of the amount of pulled down protein over total protein. […]"}, "H-Ras": {"biological_target": "H-Ras (Homo sapiens, UniProt P01112)", "sequence (P01112 whole entry)": "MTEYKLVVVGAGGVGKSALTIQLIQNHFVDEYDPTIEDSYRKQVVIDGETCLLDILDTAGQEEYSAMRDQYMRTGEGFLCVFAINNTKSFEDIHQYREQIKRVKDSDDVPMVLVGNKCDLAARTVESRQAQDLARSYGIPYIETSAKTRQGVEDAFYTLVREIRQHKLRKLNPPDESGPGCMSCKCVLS", "test": "GST-Raf1-RBD pull-down of EGFR-mediated H-Ras activation in MDA-MB-231 cells", "format": "cell-based", "set-up": "endogenous in cells; host or cells: MDA-MB-231", "settings": "50 μM", "method": "Activation of ARF1, ARF6, Ras, and Rho were assessed by using GST pull-down assays. HEK293SL cells were transiently transfected with 3 µg AT1R-flag only (Ras and Rho) or along with 500 ng HA-ARF6 (ARF6) or HA-ARF1 (ARF1). Forty-eight hours later, the HEK293 or MDA-MB-231 cells were serum-starved for 4 h with DMEM containing 20 mM HEPES then pretreated with DMSO or Rasarfin (50 µM) for 30 min. Cells were then stimulated with 1 µM AngII or 100 ng/ml EGF for 0 and 2 min. Cells were then washed once with ice-cold PBS and lysed for 30 min at 4 °C in 300 µl of lysis buffer (pH 7.5, 50 mM Tris-HCl, 140 mM NaCl, 5 mM MgCl2, 10% glycerol (v/v), 1% Nonidet P-40 (v/v), 1 mM dithiothreitol) supplemented with protease inhibitors (1 mM phenylmethyl-sulfonyl fluoride (PMSF), 10 µg/ml leupeptin, 5 µg/ml aprotinin, 1 µg/ml pepstatin A) and phosphatase inhibitors (20 mM NaF, 0.025 mM pervanadate). The samples were cleared by centrifugation and 30 µl (cell lysates) was kept for assessing total protein contents. The remaining was transferred to fresh tubes with 20 µg of either GST, GST-GGA3-PBD, GST-Raf1-RBD or GST-Rhotekin-RBD coupled to glutathione resin and rotated for 1–2 h at 4 °C. […] ImageLab 5.2 software was used to quantify the digital blots as fold of the amount of pulled down protein over total protein. […]"}}, "note": "Where “and” joins values, the source holds several entries; their conditions need not be identical. Equal entries are not always repeated."}
{"smiles": "CC(C)C(=O)N1CCN(c2ccc(NC(=O)c3cc4ccccc4o3)cc2Cl)CC1", "note": "[Compound 21]", "values": [{"measurement": "ERK1/2 activation by AT1R in β-arrestin1/2 KO cells", "setting": "[1]", "value": "similarly inhibited ERK1/2 activation"}, {"measurement": "ERK1/2 activation by AT1R in β-arrestin1/2 KO cells", "setting": "[1]; listed as Rasarfin", "value": "totally blocked"}, {"measurement": "ERK1/2 activation relative to time 0 (S_Fig.4a)", "setting": "[1]; barr1/2 KO cells, Time 0 min", "value": 1}, {"measurement": "Mean Diff. DMSO - Comp 21 (Bonferroni's multiple comparisons test)", "setting": "[1]; barr1/2 KO cells, Time 0 min", "value": 0}, {"measurement": "Mean Diff. DMSO - Comp 21 (Bonferroni's multiple comparisons test)", "setting": "[1]; barr1/2 KO cells, Time 5 min", "value": 8.446}, {"measurement": "Mean Diff. DMSO - Comp 21 (Bonferroni's multiple comparisons test)", "setting": "[1]; barr1/2 KO cells, Time 20 min", "value": 10.85}, {"measurement": "ERK1/2 activation induced by overexpression of BRAF-V600E", "setting": "BRAF; 50 μM", "value": "nor did it block ERK1/2 activation"}, {"measurement": "ERK1/2 phosphorylation relative to mock (S_Fig.4d)", "setting": "BRAF; Flag-BRAF-V600E, listed as Comp 21", "value": "3.464 and 4.631 and 3.5221 and 2.836"}, {"measurement": "ERK1/2 phosphorylation relative to mock (S_Fig.4d)", "setting": "BRAF; Flag-BRAF-WT, listed as Comp 21", "value": "1 and 1.273 and 1.416"}, {"measurement": "ERK1/2 phosphorylation relative to mock (S_Fig.4d)", "setting": "BRAF; mock", "value": 1}, {"measurement": "reduction in GTP-bound Ras, EGFR-stimulated cells (pull-down)", "setting": "Ras; 50 μM, compared to vehicle-treated cells", "value": 60, "unit": "%"}, {"measurement": "Ras-GTP over total Ras, GST-Raf1-RBD pull-down, EGFR", "setting": "Ras; Ctrl (no EGF)", "value": "0.1945 and 0.09698 and 0.1503"}, {"measurement": "Ras-GTP over total Ras, GST-Raf1-RBD pull-down, EGFR", "setting": "Ras; EGF", "value": "1.319 and 0.978 and 0.8185"}, {"measurement": "Ras activity in MDA-MB-231 cells (pull-down)", "setting": "H-Ras", "value": "inhibited"}]}
